In general, IC50 refers to the midpoint of a concentration-inhibition curve. A higher IC50 goes with lower potency.

Molecules are shown by their SMILES.

The target in the assay is T1, OTR (Homo sapiens, UniProt P30559).
T1 construct: expressed in transfected cells; host or cells: OTR/HEK293 stably transfected cell line
T1 sequence (P30559 1-389): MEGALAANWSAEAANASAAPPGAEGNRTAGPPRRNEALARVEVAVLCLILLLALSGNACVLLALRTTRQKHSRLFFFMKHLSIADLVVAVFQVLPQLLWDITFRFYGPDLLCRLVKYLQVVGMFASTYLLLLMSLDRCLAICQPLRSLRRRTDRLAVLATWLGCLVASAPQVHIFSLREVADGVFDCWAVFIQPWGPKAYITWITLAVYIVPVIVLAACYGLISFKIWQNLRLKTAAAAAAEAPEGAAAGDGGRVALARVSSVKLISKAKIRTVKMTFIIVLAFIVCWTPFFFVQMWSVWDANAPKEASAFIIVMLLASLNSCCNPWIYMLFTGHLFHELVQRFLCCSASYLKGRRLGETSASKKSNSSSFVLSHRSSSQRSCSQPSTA
As to the kind of experiment: Ca2+ mobilization in cells stably expressing OTR (FLIPR, antagonist mode). Particulars: OTR/HEK293 stably transfected cell line. The assay is classed as cell-based. The text has this:
Test Example 1. Determination of the Effect of the Compound of the Present Disclosure on Ca^2+ Mobilization in Cells Stably Expressing OTR
To measure the antagonistic effect of the compound of the present disclosure on OTR activity expressed in the OTR/HEK293 stably transfected cell line.
• DMEM medium (Invitrogen, 11965) • F12 medium (Invitrogen, 11765) • Fetal bovine serum (Excell, FSP500) • Geneticin (Invitrogen, 10131) • Penicillin/Streptomycin (Invitrogen, SV30010) • Fluo-4 Direct kit (Invitrogen, F10471) • 384-well cell plate (Greiner, 781090) • 384-well compound plate (Greiner, 781280)
• FLIPR instrument (Molecular Device) • EHCO instrument (Labcyte) • Cell counter (Beckman, Vi-cell XR)
The cultured cells were washed twice with pre-heated DPBS and digested with appropriate amount of trypsin at 37° C. for 1 minute, and then appropriate amount of culture medium was added to terminate digestion. The cells were centrifuged at 1000 rpm for 5 minutes. The supernatant was gently discarded without disturbing the cell pellet at the bottom. The cells were resuspended in culture medium and 1 mL was taken out for cell counting and viability assessment using Vi-CELL™. The cells were diluted to 1×10^6 cells/mL (20,000 cells/20 μL) with culture medium, seeded into a 384-well cell plate and incubated at 37° C. with 5% CO2 for 16-20 h.
Formulation of 250 mM Probenecid solution: according to the kit instructions, 1 mL of FLIPR buffer salt solution was added to 77 mg of probenecid, prepared fresh just before use. Formulation of Fluo-4 Direct™ (2×, 8 μM) loading buffer: according to the kit instructions, the required amount of Fluo-4 Direct™ was taken out and thawed in advance, 10 mL of FLIPR buffer salt solution and 0.2 mL of 250 mM Probenecid solution were added to each tube, and the mixture was vortexed in the dark for >5 minutes, prepared fresh just before use.
Preparation of agonist reference compound plate: the agonist was diluted 3-fold in 10 points using ECHO, and 750 nL was transferred to the corresponding compound plate using ECHO.
Preparation of reference and test compound plates: the test compound was diluted 3-fold in 10 points with ECHO, and 900 nL was transferred to the corresponding compound plate; the reference compound was diluted 3-fold in 10 points with assay buffer salt solution, and 30 μL was transferred to the compound plate.
30 μL of assay buffer salt solution was added to the corresponding compound plate, and the mixture was centrifuged at 1000 rpm for 1 minute.
The cell plate prepared the day before was taken out of the incubator, and 20 μL of 2×Fluo-4 Direct™ buffer was added to each well, with a total volume of 40 μL.
The plate was incubated in an incubator at 37° C. with 5% CO2 for 50 minutes, and then placed at room temperature for 10 minutes.
The compound plate, cell plate, and pipette tips were placed into the instrument.
For the agonist reference compound plate: the FLIPR instrument software was run, 10 μL of the pre-determined concentration of agonist reference compound was added to the cell plate following the preset protocol, and the fluorescence signal was read. After reading, the data were exported to calculate the EC80 for each cell line, and the agonist at 6×EC80 concentration was prepared.
For the compound plate: the FLIPR instrument software was run, 10 μL of the pre-determined concentration of test compound and the reference compound were added to the cell plate following the preset protocol, and the fluorescence signal was read. 10 μL of the reference compound agonist at 6×EC80 concentration was added to the cell plate, and the fluorescence signal was read. For antagonist detection of the compound, the data were exported using the “Max-Min” and “Read 1 to Maximum allowed” methods in the software, and the data were fitted using Prism.
`CO/N=C1\C[C@@H](CNC(C)=O)N(C(=O)c2ccc(-c3ccccc3C)cc2)C1` [Example C0003, (S, E)-N-((4-(Methoxyimino)-1-(2′-methyl-[1,1′-biphenyl]-4-carbonyl)pyrrolidin-2-yl)methyl)acetamide]: the 50% inhibitory concentration (IC50) worked out at 2330 nM. `CO/N=C1/C[C@@H](CO)N(C(=O)c2ccc(-c3cccc(C#N)c3C)c3ncnn23)C1` [Example A0190, (S, Z)-3-(5-(2-(Hydroxymethyl)-4-(methoxyimino)pyrrolidine-1-carbonyl)-[1,2,4]triazolo[1,5-a]pyridin-8-yl)-2-methylbenzonitrile] displayed an IC50 of 1510 nM. The figure for `CO/N=C1/C[C@@H](CO)N(C(=O)c2ccc(-c3cc(C#N)ccc3C)cc2)C1` [Example C0095, (S, Z)—4′-(2-(Hydroxymethyl)-4-(methoxyimino)pyrrolidine-1-carbonyl)-6-methyl-[1,1′-biphenyl]-3-carbonitrile] is 1260 nM; for `CO/N=C1/C[C@@H](CO)N(C(=O)c2ccc(-c3cccc4c3CCC4)cc2)C1` [Example C0051, (S, Z)-(4-(2,3-Dihydro-1H-inden-4-yl)phenyl)(2-(hydroxymethyl)-4-(methoxyimino)pyrrolidin-1-yl)methanone] it is 115 nM; for `CO/N=C1/CCN(C(=O)c2ccc(-c3cccc(C#N)c3C)cc2)[C@H](CO)C1` [Example A0249, (S,Z)-4′-(2-(Hydroxymethyl)-4-(methoxyimino)piperidine-1-carbonyl)-2-methyl-[1,1′-biphenyl]-3-carbonitrile] it is 3060 nM. `CO/N=C1/C[C@@H](CO)N(C(=O)c2ccc(-c3cccc(C#N)c3C)c(OCC3CC3)n2)C1` [Example A0188, (S, Z)-3-(2-(Cyclopropylmethoxy)-6-(2-(hydroxymethyl)-4-(methoxyimino)pyrrolidine-1-carbonyl)pyridin-3-yl)-2-methylbenzonitrile]: 43.9 nM corresponded to half-maximal inhibition (IC50).

For `CO/N=C1\C[C@@H]([C@H](C)O)N(C(=O)c2ccc(-c3cccc(C#N)c3C)cc2)C1` (single isomer, unassigned) [Example C0110], the IC50 stood at 98.1 nM. The compound `CO/N=C1/C[C@@H](CO)N(C(=O)c2ccc(-c3c(F)ccc(C#N)c3C)c3c2OCO3)C1` [Example C0139, 4-Fluoro-3-(7-((S,Z)-2-(hydroxymethyl)-4-(methoxyimino)pyrrolidine-1-carbonyl)benzo[d][1,3]dioxol-4-yl)-2-methylbenzonitrile] returned an IC50 of 40.5 nM. `CO/N=C1/CN(C(=O)c2ccc(-c3ccccc3C)cc2)C2(COC2)C1` [Example A0112, (E)-(7-(Methoxyimino)-2-oxa-5-azaspiro[3.4]octan-5-yl)(2′-methyl-[1, 1′-biphenyl]-4-yl)methanone] gave an IC50 of 815 nM. To `CO/N=C1/C[C@@H](CO)N(C(=O)c2cnc(-c3ccccc3C)s2)C1` [Example C0030, (S, Z)-(2-(Hydroxymethyl)-4-(methoxyimino)pyrrolidin-1-yl)(2-(o-tolyl)thiazol-5-yl)methanone] belongs 1820 nM; to `CO/N=C1/C[C@@H](COCCO)N(C(=O)c2ccc(-c3ccccc3C)cc2)C1` [Example C0017, (S, Z)-(2-((2-Hydroxyethoxy)methyl)-4-(methoxyimino)pyrrolidin-1-yl)(2′-methyl-[1,1′-biphenyl]-4-yl)methanone], 140 nM; to `CO/N=C1\C[C@@H](CNC(=O)CO)N(C(=O)c2ccc(-c3ccccc3C)cc2)C1` [Example C0005, (S, E)-2-Hydroxy-N-((4-(methoxyimino)-1-(2′-methyl-[1,1′-biphenyl]-4-carbonyl)pyrrolidin-2-yl)methyl)acetamide], 1790 nM. Compound `CO/N=C1/C[C@@H](CO)N(C(=O)c2ncc(-c3cccc(C)c3C)c(C(F)(F)F)n2)C1` [Example C0087, (S, Z)-(5-(2,3-Dimethylphenyl)-4-(trifluoromethyl)pyrimidin-2-yl)(2-(hydroxymethyl)-4-(methoxyimino)pyrrolidin-1-yl)methanone] yielded an IC50 of 176 nM. On to `CO/N=C1\C[C@@H](CO)N(C(=O)c2ccc(-c3ccc(F)c(C#N)c3C)c3c2OCCO3)C1` [Example C0148, (S,E)-6-Fluoro-3-(8-(2-(hydroxymethyl)-4-(methoxyimino)pyrrolidine-1-carbonyl)-2,3-dihydrobenzo[b][1,4]dioxin-5-yl)-2-methylbenzonitrile], for which half-maximal inhibition (IC50) was put at 158 nM.

The compound `CO/N=C1/C[C@@H](CO)N(C(=O)c2ccc(-c3cccc(C#N)c3C)c(C3(O)COC3)c2)C1` [Example A0183, 3-(4-[(2S, 4Z)-2-(Hydroxymethyl)-4-(methoxyimino)pyrrolidine-1-carbonyl]-2-(3-hydroxyoxetan-3-yl)phenyl)-2-methylbenzonitrile] registered an IC50 of 1480 nM. As to `CON=C1CC(C(=O)NCC(O)c2ccccc2)N(C(=O)c2ccc(-c3cccc(C#N)c3C)cc2)C1` (single isomer, unassigned) [Example A0233, (25, Z)-1-(3′-Cyano-2′-methyl-[1,1′-biphenyl]-4-carbonyl)-N-(2-hydroxy-2-phenethyl)-4-(methoxyimino)pyrrolidine-2-carboxamide], inhibition was half-maximal at 48.3 nM (IC50).

With `CO/N=C1/C[C@@H](CO)N(C(=O)c2ccc(-c3ccccc3C)cn2)C1` [Example C0015, (S, Z)-(2-(Hydroxymethyl)-4-(methoxyimino)pyrrolidin-1-yl)(5-(o-tolyl)pyridin-2-yl)methanone], the IC50 turned out to be 888 nM. `CO/N=C1/C[C@@H](CO)N(C(=O)c2ncc(-c3cccc(C)c3C)s2)C1` [Example C0097, (S, Z)-(5-(2,3-Dimethylphenyl)thiazol-2-yl)(2-(hydroxymethyl)-4-(methoxyimino)pyrrolidin-1-yl)methanone] yielded an IC50 of 815 nM.

For `CO/N=C1/C[C@@H](CO)N(C(=O)c2ccc(-c3cc(F)cc(C#N)c3C)c3c2OCO3)C1` [Example C0144, (S,Z)-5-Fluoro-3-(7-(2-(hydroxymethyl)-4-(methoxyimino)pyrrolidine-1-carbonyl)benzo[d][1,3]dioxol-4-yl)-2-methylbenzonitrile], 59.9 nM corresponded to half-maximal inhibition (IC50). `CO/N=C1\C[C@@H](CO)N(C(=O)c2ccc(-c3cccc(C#N)c3C)cc2F)C1` [Example C0156, (S,E)-3′-Fluoro-4′-(2-(hydroxymethyl)-4-(methoxyimino)pyrrolidine-1-carbonyl)-2-methyl-[1,1′-biphenyl]-3-carbonitrile] showed a 50% inhibitory concentration (IC50) of 73.6 nM. For `CO/N=C1/C[C@@H](CO)N(C(=O)c2ccc3c(c2)OCCc2c(C#N)cccc2-3)C1` [Example C0146, (S, Z)-3-(2-(Hydroxymethyl)-4-(methoxyimino)pyrrolidine-1-carbonyl)-6,7-dihydrodibenzo[b,d]oxepine-8-carbonitrile], the IC50 was determined as 228 nM. To `CO/N=C1/C[C@@H](CO)N(C(=O)c2ncc(-c3cccc(C)c3C)cc2OC)C1` [Example C0081, (S, Z)-(5-(2,3-Dimethylphenyl)-3-methoxypyridin-2-yl)(2-(hydroxymethyl)-4-(methoxyimino)pyrrolidin-1-yl)methanone] belongs 129 nM. To `CO/N=C1\C[C@@H](CO)N(C(=O)c2ccc(-c3cccc(C#N)c3C)cc2)C1` [Example C0057, (S, E)-4′-(2-(Hydroxymethyl)-4-(methoxyimino)pyrrolidine-1-carbonyl)-2-methyl-[1,1′-biphenyl]-3-carbonitrile] belongs 82.9 nM.
